Test results reported in patent publication US8536160B2, “Azaheterocyclyl derivatives of androstanes and androstenes as medicaments for cardiovascular disorders” (priority 2006, dated 2013).
Counter-ions that a name gives are not always drawn. Like-named read-outs stand apart in the source and are kept apart here.

Experiments:
[1] = target: Dog Kidney Na+, K+-ATPase (Canis lupus familiaris, UniProt P50997); assay: Inhibition of the enzymatic activity of purified Na+,K+-ATPase (hydrolysis of 32P-ATP); assay type: biochemical
anesthetized guinea-pig = assay: Inotropic effect and lethal dose, slow intravenous infusion in anesthetized guinea-pig; assay type: in vivo; design: Maximum dose infused: unit not given here; details: for Emax / ED80 / ED (max): Cavia porcellus, iv, 1.5 h; for Emax: read-out: Emax % increase in +dP/dTmax; for ED80: read-out: ED80 (inotropic potency, dose increasing +dP/dTmax by 80%); for ED (max): read-out: EDmax (dose inducing maximum positive inotropic effect); for % decrease from Emax after 20 min from the end of the infusion: duration of the inotropic effect; for Maximum dose infused: maximum dose infused in the survived animals; for Lethal dose/ED80 (safety ratio): calculated for the died animals
fresh rat hepatocytes = assay: Metabolism in fresh rat hepatocytes; details: for % of compound metabolized after 60 minutes: test item nominal concentration 45 μM, 2590000-3084000 hepatocytes/ml
[2] = system: hypertensive ouabain-sensitive rats (OS rats); assay: Systolic blood pressure fall in hypertensive ouabain-sensitive rats (OS rats); assay type: in vivo, rat; details: 10 μg/kg/day by mouth for four weeks
Experimental: The ability of these compounds to lower blood pressure was tested by using an animal model with induced hypertension, in particular, rats made hypertensive by chronic infusion of ouabain, according to Ferrari P., et al. J. Pharm. Exp. Ther. 1998, 285, 83-94.
The procedure adopted to test the antihypertensive activity of the compounds on the above mentioned model was the following: systolic blood pressure (SBP) and heart rate (HR) were measured by an indirect tailcuff method. The blood pressure lowering effect was measured in hypertensive ouabain-sensitive rats. The compound, suspended in Methocel 0.5% (w/v), was administered daily at the dose of 10 μg/kg/day by mouth for four weeks. SBP and HR were measured weekly 6 hours after the treatment. The comparison are ouabain sensitive rats (OS rats) and non hypertensive rats (control), both treated only with Methocel 0.5% (w/v). As shown in the following Table 4, treatment with a compound of the present invention lowers the blood pressure of OS rats (170 mm Hg) to almost the level of control rats (150 mm Hg).

[3] = slow i.v. infusion over 90 minutes, anesthetized guinea-pig, maximum increase in contractile force
[4] = slow i.v. infusion over 90 minutes, anesthetized guinea-pig
[5] = slow i.v. infusion over 90 minutes
[6] = dog kidney enzyme, hydrolysis of 32P-ATP in presence and absence of compound, read-out: Na+, K+-ATPase Inhibition IC50
[7] = read-out: Na+, K+-ATPase Inhibition IC50

SMILES: C[C@]12CC[C@H]3[C@@H](CC[C@@]4(O)CC(=NO[C@@H]5CCNC5)CC[C@]34C)[C@@H]1CCC2=O (mixture of isomers) [I-am, (E,Z) 3-(3-(R)-Pyrrolidinyl)oxyimino-5α-hydroxyandrostane-17-one hemifumarate]
- IC50 ([1]; Na+, K+-ATPase Inhibition IC50): 210 nM
- Emax (anesthetized guinea-pig; [3]): 221%
- ED80 (anesthetized guinea-pig; [4]): 3.87 µmol/kg
- ED (max) (anesthetized guinea-pig; [4]): 15.3 µmol/kg
- % decrease from Emax after 20 min from the end of the infusion (anesthetized guinea-pig; anesthetized guinea-pig): 100%
- Dead/treated (anesthetized guinea-pig; [4]): 0/3
- Maximum dose infused (anesthetized guinea-pig; [5]): 25.2
- % of compound metabolized after 60 minutes (fresh rat hepatocytes): 12%

SMILES: C#CC1CC2C3CCC(=O)C3(C)CCC2C2(C)CCC(=NOC3CCNC3)CC12 (mixture of isomers) [I-bb, (E,Z) 3-[3′-(R)-Pyrrolidinyl]oxyimino-6α-ethynylandrostane-17-one hydrochloride]
- IC50 ([1]; Na+, K+-ATPase Inhibition IC50): 110 nM
- Emax (anesthetized guinea-pig; [3]): 147%
- ED80 (anesthetized guinea-pig; [4]): 3.7 µmol/kg
- ED (max) (anesthetized guinea-pig; [4]): 6.39 µmol/kg
- % decrease from Emax after 20 min from the end of the infusion (anesthetized guinea-pig; anesthetized guinea-pig): 29%
- Dead/treated (anesthetized guinea-pig; [4]): 0/3
- Maximum dose infused (anesthetized guinea-pig; [5]): 6.5

SMILES: CC12CCC3C(CC(CCO)C4CC(=NOC5CCNC5)CCC43C)C1CCC2=O (mixture of isomers) [I-bc, (E,Z) 3-[3′-(R)-Pyrrolidinyl]oxyimino-6α-(2-hydroxyethyl)androstane-17-one hydrochloride]
- IC50 [1, 6]: 58 nM
- Emax (anesthetized guinea-pig; [3]): 183%
- ED80 (anesthetized guinea-pig; [4]): 1.89 µmol/kg
- ED (max) (anesthetized guinea-pig; [4]): 5.08 µmol/kg
- % decrease from Emax after 20 min from the end of the infusion (anesthetized guinea-pig; anesthetized guinea-pig): 28%
- Dead/treated (anesthetized guinea-pig; [4]): 0/3
- Maximum dose infused (anesthetized guinea-pig; [5]): 6.3

SMILES: C=C1C[C@H]2[C@@H]3CCC(=O)[C@@]3(C)CC[C@@H]2[C@@]2(C)CCC(=NO[C@@H]3CCNC3)C[C@]12O (mixture of isomers) [I-bh, (E,Z) 3-[3′-(R)-Pyrrolidinyl]oxyimino-5α-hydroxy-6-methylenandrostane-17-one hydrochloride]
- IC50 ([1]; Na+, K+-ATPase Inhibition IC50): 12 nM
- Emax (anesthetized guinea-pig; [3]): 173%
- ED80 (anesthetized guinea-pig; [4]): 1.91 µmol/kg
- ED (max) (anesthetized guinea-pig; [4]): 3.8 µmol/kg
- % decrease from Emax after 20 min from the end of the infusion (anesthetized guinea-pig; anesthetized guinea-pig): 63%
- Dead/treated (anesthetized guinea-pig; [4]): 0/3
- Maximum dose infused (anesthetized guinea-pig; [5]): 6.4

SMILES: C[C@]12CC[C@H]3[C@@H](C/C(=N\O)[C@@]4(O)CC(=NO[C@@H]5CCNC5)CC[C@]34C)[C@@H]1CCC2=O (mixture of isomers) [I-bp, (E,Z) 3-[3-(R)-Pyrrolidinyl]oxyimino-5α-hydroxy-6-(E)-hydroxyiminoandrostane-17-one hydrochloride]
- Emax (anesthetized guinea-pig; [3]): 226%
- ED80 (anesthetized guinea-pig; [4]): 0.37 µmol/kg
- ED (max) (anesthetized guinea-pig; [4]): 1.8 µmol/kg
- % decrease from Emax after 20 min from the end of the infusion (anesthetized guinea-pig; anesthetized guinea-pig): 100%
- Maximum dose infused (anesthetized guinea-pig; [5]): 4.3
- % of compound metabolized after 60 minutes (fresh rat hepatocytes): 8%

SMILES: CC12CCC3C(C(O)CC4CC(=NOC5CCNC5)CCC43C)C1CCC2=O (mixture of isomers) [I-cj, (E,Z) 3-[3′-(R)-Pyrrolidinyl]oxyimino-7α-hydroxyandrostane-17-one fumarate]
- IC50 ([1]; Na+, K+-ATPase Inhibition IC50): 220 nM
- % of compound metabolized after 60 minutes (fresh rat hepatocytes): 20%

SMILES: CC1CC2CC(=NOC3CCNC3)CCC2(C)C2CCC3(C)C(=O)CCC3C12 (mixture of isomers) [I-cl, (E,Z) 3-[3′-(R)-Pyrrolidinyl]oxyimino-7β-methylandrostane-17-one hydrochloride]
- IC50 ([1]; Na+, K+-ATPase Inhibition IC50): 150 nM
- Emax (anesthetized guinea-pig; [3]): 187%
- ED80 (anesthetized guinea-pig; [4]): 3.34 µmol/kg
- ED (max) (anesthetized guinea-pig; [4]): 6.34 µmol/kg
- % decrease from Emax after 20 min from the end of the infusion (anesthetized guinea-pig; anesthetized guinea-pig): 7%
- Dead/treated (anesthetized guinea-pig; [4]): 0/3
- Maximum dose infused (anesthetized guinea-pig; [5]): 6.4

SMILES: CC12CCC3C(C(=O)C(CO)C4CC(=NOC5CCNC5)CCC43C)C1CCC2=O (mixture of isomers) [I-cs, (E,Z) 3-[3′-(R)-Pyrrolidinyl]oxyimino-6α-hydroxymethylandrostane-7,17-dione fumarate]
- IC50 ([1]; Na+, K+-ATPase Inhibition IC50, dog kidney enzyme, hydrolysis of 32P-ATP in presence and absence of compound): 13 nM
- % of compound metabolized after 60 minutes (fresh rat hepatocytes): 5%

SMILES: C=C1C[C@@H]2[C@H](CC[C@]3(C)C(=O)CC[C@@H]23)[C@@]2(C)CC[C@@H](SC3CCNC3)CC12.O=C(O)/C=C/C(=O)O (mixture of isomers) [I-db, 3α-[3-(RS)-Pyrrolidinylthio]-6-methyleneandrostane-17-one fumarate]
- IC50 [1, 7]: 20000 nM
- HR beats/min. [2]: 387 beats/min.
- HR % beats/min ([2]; change versus OS rats on vehicle): +6.6%
- SBP mmHg ([2]; measured 6 hours after treatment, tail-cuff): 153.0 mmHg
- SBP - % ([2]; versus OS rats on vehicle): 10.3%
- SBP - mmHg (fall) ([2]; versus OS rats on vehicle): 17.0 mmHg
- % of compound metabolized after 60 minutes (fresh rat hepatocytes): 25%

SMILES: C[C@]12CCC(=NOCCN)CC1C(=O)C[C@@H]1[C@@H]2CC[C@]2(C)C(=O)CC[C@@H]12.Cl (mixture of isomers) [compd 22b, (EZ) 3-(2-aminoethoxyimino)androstane-6,17-dione hydrochloride, reference compound]
- Emax (anesthetized guinea-pig; [3]): 182%
- ED80 (anesthetized guinea-pig; [4]): 1.82 µmol/kg
- ED (max) (anesthetized guinea-pig; [4]): 5.74 µmol/kg
- Lethal dose/ED80 (safety ratio) (anesthetized guinea-pig; anesthetized guinea-pig): 22.6
- % decrease from Emax after 20 min from the end of the infusion (anesthetized guinea-pig; anesthetized guinea-pig): 100%
- Dead/treated (anesthetized guinea-pig; [4]): 7/8
- Maximum dose infused (anesthetized guinea-pig; [5]): 32.1
- metabolism in fresh rat hepatocytes within 60 minutes (in words) (fresh rat hepatocytes; 45 μM): almost completely metabolized
- % of compound metabolized after 60 minutes (fresh rat hepatocytes): 95%

SMILES: CC12CCC3C(CC(O)C4CC(=NOC5CCNC5)CCC43C)C1CCC2=O (single isomer, unassigned) [I-an, hydrochloride]
- IC50 ([1]; Na+, K+-ATPase Inhibition IC50): 580 nM
- % of compound metabolized after 60 minutes (fresh rat hepatocytes): 21%

SMILES: CON=C1CC2C3CCC(=O)C3(C)CCC2C2(C)CCC(=NOC3CCNC3)CC12 (single isomer, unassigned) [I-be]
- IC50 ([1]; Na+, K+-ATPase Inhibition IC50): 260 nM
- % of compound metabolized after 60 minutes (fresh rat hepatocytes): 42%

SMILES: CON=C1CC2C3CCC(=O)C3(C)CCC2C2(C)CCC(=NOC3CCNC3)CC12O (single isomer, unassigned) [I-bw]
- IC50 [1, 6]: 39 nM
- % of compound metabolized after 60 minutes (fresh rat hepatocytes): 24%

SMILES: CC12CCC3C(C(O)C(CO)C4CC(=NOC5CCNC5)CCC43C)C1CCC2=O (single isomer, unassigned) [I-dk, hydrochloride]
- IC50 ([1]; Na+, K+-ATPase Inhibition IC50): 5.8 nM
- % of compound metabolized after 60 minutes (fresh rat hepatocytes): 5%

SMILES: CC12CCC3C(CC(O)C4CC(=NOC5CCNC5)CCC43C)C1CCC2=O (single isomer, unassigned) [I-dp, hydrochloride]
- IC50 ([1]; Na+, K+-ATPase Inhibition IC50): 1200 nM
- Emax (anesthetized guinea-pig; [3]): 358%
- ED80 (anesthetized guinea-pig; [4]): 3.92 µmol/kg
- ED (max) (anesthetized guinea-pig; [4]): 43.6 µmol/kg
- Lethal dose/ED80 (safety ratio) (anesthetized guinea-pig; anesthetized guinea-pig): 49
- Dead/treated (anesthetized guinea-pig; [4]): 2/2
- Maximum dose infused (anesthetized guinea-pig; [5]): 148

SMILES: C[C@]12CCC(=NO[C@@H]3CCNC3)C[C@@H]1[C@@H](C(N)=O)C[C@@H]1[C@@H]2CC[C@]2(C)C(=O)CC[C@@H]12.Cl [I-at, (Z,E) 3-(3-(R)-Pyrrolidinyloxyimino)-6α-carbamoylandrostane-17-one hydrochloride]
- IC50 [1, 7]: 140 nM
- % decrease from Emax after 20 min from the end of the infusion (anesthetized guinea-pig; anesthetized guinea-pig): 16%
- Dead/treated (anesthetized guinea-pig; [4]): 0/4
- ED80 (inotropic potency, dose increasing +dP/dTmax by 80%) (anesthetized guinea-pig; [4]): 2.21 µmol/kg
- EDmax (dose inducing maximum positive inotropic effect) (anesthetized guinea-pig; [4]): 8.82 µmol/kg
- Emax % increase in +dP/dTmax (anesthetized guinea-pig; [3]): 109%
- Maximum dose infused (anesthetized guinea-pig; [5]): 25.0

SMILES: C=C1CC2C/C(=N/O[C@@H]3CCNC3)CC[C@]2(C)[C@H]2CC[C@]3(C)C(=O)CC[C@H]3[C@H]12.Cl (stereo partly drawn) [I-cg, (E,Z) 3-[3′-(R)-Pyrrolidinyl]oxyimino-7-methyleneandrostane-17-one hydrochloride]
- IC50 [1, 7]: 240 nM
- % of compound metabolized after 60 minutes (fresh rat hepatocytes): 28%
